From the NIST ThermoML archive (doi:10.1016/j.jct.2013.09.026)
± gives the expanded uncertainty stated by the source.

Conditions: 298.15 K; 101.33 kPa; Liquid; Vibrating tube method

| Structure (SMILES) | mass density |
| --- | --- |
| CCC(C)=O [butanone] | 799.969 ± 0.17 kg/m3 |
| CCCO [propan-1-ol] | 799.656 ± 0.17 kg/m3 |
| CCN(CC)CC [triethylamine] | 722.814 ± 0.19 kg/m3 |
